Where a name gives a salt, the structure may show the parent alone.
How the values were obtained:
TLR7 = target: T1, TLR7 (Homo sapiens, UniProt Q9NYK1); experiment: In vitro human TLR7 binding reporter assay (HEK-Blue, NF-kB/AP1-inducible SEAP); format: cell-based; details: activity range, read-out: TLR7 Agonist EC50
T1 construct: human HEK-Blue cells co-expressing a TLR7 or TLR8 gene
T1 sequence (Q9NYK1 27-1049): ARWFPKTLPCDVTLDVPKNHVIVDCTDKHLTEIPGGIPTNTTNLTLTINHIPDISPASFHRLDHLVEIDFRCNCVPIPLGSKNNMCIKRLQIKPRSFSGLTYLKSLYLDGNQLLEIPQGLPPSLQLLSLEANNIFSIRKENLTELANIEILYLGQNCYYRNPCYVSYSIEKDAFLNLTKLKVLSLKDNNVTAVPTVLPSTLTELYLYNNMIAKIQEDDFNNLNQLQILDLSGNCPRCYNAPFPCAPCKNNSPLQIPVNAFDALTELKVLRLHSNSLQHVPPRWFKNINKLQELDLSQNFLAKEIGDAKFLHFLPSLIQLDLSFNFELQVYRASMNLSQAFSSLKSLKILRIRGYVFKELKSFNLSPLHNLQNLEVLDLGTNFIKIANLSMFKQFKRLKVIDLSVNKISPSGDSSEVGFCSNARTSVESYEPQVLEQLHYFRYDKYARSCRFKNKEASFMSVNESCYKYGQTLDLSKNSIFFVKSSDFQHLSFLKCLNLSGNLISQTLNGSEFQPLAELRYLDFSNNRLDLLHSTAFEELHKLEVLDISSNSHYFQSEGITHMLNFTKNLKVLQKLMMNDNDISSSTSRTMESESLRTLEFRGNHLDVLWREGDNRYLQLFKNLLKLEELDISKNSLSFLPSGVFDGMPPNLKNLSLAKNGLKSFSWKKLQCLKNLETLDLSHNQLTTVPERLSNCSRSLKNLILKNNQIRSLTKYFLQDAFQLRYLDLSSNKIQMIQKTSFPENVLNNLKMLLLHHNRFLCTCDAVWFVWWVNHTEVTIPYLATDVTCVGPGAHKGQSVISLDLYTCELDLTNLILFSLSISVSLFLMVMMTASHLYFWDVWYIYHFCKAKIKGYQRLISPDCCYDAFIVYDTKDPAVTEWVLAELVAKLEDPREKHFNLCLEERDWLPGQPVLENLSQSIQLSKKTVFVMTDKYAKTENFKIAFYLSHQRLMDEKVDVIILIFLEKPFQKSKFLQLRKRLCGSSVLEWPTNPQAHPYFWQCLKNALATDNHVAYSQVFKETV
Outline: (§1)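 EC50s come from NF-kB/AP1-driven SEAP secretion in HEK-Blue cells expressing TLR7 or TLR8, measured with Quanti-Blue after an 18 h compound incubation. Maximal response is defined by a 50 μM reference standard.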

TLR8 = target: T2, TLR8 (Homo sapiens, UniProt Q9NR97); experiment: In vitro human TLR8 binding reporter assay (HEK-Blue, NF-kB/AP1-inducible SEAP); format: cell-based; details: activity range, read-out: TLR8 Agonist EC50
T2 construct: human HEK-Blue cells co-expressing a TLR7 or TLR8 gene
T2 sequence (Q9NR97 27-1041): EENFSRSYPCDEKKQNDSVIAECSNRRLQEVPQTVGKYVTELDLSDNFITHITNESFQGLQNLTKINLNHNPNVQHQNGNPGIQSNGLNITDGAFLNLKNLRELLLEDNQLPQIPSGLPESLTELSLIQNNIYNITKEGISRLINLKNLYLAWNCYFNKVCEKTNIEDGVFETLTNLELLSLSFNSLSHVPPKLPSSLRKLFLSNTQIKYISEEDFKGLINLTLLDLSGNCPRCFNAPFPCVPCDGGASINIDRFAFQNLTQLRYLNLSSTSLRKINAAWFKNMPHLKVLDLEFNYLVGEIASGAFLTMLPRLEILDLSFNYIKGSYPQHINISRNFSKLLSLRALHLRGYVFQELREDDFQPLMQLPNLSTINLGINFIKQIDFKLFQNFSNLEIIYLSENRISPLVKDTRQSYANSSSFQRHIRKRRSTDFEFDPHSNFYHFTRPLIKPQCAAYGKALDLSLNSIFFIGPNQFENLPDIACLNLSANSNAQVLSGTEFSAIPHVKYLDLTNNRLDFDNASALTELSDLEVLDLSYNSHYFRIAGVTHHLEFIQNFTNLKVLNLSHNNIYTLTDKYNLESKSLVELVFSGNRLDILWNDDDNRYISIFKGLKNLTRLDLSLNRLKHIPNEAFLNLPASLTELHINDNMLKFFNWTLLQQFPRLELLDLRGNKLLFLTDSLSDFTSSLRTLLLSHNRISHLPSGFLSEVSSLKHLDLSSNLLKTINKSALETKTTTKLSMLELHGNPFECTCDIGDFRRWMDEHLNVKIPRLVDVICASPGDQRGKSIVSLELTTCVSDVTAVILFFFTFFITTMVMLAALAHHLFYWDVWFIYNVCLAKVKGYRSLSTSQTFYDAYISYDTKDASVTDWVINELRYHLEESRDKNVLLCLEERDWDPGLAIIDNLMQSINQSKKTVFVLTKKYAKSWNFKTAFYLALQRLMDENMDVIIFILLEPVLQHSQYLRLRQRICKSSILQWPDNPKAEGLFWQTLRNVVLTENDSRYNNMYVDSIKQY
Outline: as §1

THP-1 cells = experiment: Measurement of IL-1β production, hTRF protocol (second alternative procedure), THP-1 cells; format: cell-based, human; details: Homo sapiens, THP-1, IL-1β production, human cells; read-out: NLRP3 hILIB EC50
Outline: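 THP-1 cells differentiated overnight with 50 ng/ml PMA, then plated at 50,000 cells/well in RPMI with 2% FBS onto serial compound dilutions (top final concentration 10 μM) for 2 hours at 37° C. Supernatant IL-1β measured by hTRF (antibodies at 1:40, overnight at 4° C), read at 665/615 nm against a standard curve.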

Row | Structure (SMILES) | EC50 (TLR7) [µM] | EC50 (TLR8) [µM] | EC50 (THP-1 cells) [µM]
1 | CN(Cc1cc2c(N)nc3cc(-c4cc[nH]n4)ccc3c2[nH]1)[C@H]1CCOC1 [Example 491] | > 100 | > 100 | 1.17
2 | Nc1nc2cc(-c3cc[nH]n3)ccc2c2[nH]c(CN3CC4(CCOC4)C3)cc12 [Example 492] | > 100 | > 100 | 0.76
3 | Cc1nc(C(=O)NCCc2cc3c(N)nc4cc(-c5cc[nH]n5)ccc4c3[nH]2)co1 [Example 493] | > 100 | > 100 | 0.18
4 | Nc1nc2cc(-c3cc[nH]n3)ccc2c2[nH]c(CNCCO)cc12 [Example 494] | > 100 | > 100 | 1.89
5 | Cc1nc(C(=O)NCCc2cc3c(N)nc4cc(-c5cc[nH]n5)ccc4c3[nH]2)cs1 [Example 495] | > 100 | > 100 | 0.45
6 | Nc1nc2cc(-c3cc[nH]n3)ccc2c2[nH]c(CNCCF)cc12 [Example 496] | > 100 | > 100 | 0.05
7 | Nc1nc2cc(-c3cc[nH]n3)ccc2c2[nH]c(CNCC(F)(F)F)cc12 [Example 497] | > 100 | > 100 | 0.05
8 | COCCS(=O)(=O)NCCc1cc2c(N)nc3cc(-c4cc[nH]n4)ccc3c2[nH]1 [Example 498] | > 100 | > 100 | 2.39
9 | CC(C)(C)c1cccc(C(=O)NCCc2cc3c(N)nc4cc(-c5cc[nH]n5)ccc4c3[nH]2)n1 [Example 499] | > 100 | > 100 | 1.34
10 | Nc1nc2cc(-c3cc[nH]n3)ccc2c2[nH]c(CCNC(=O)c3cnco3)cc12 [Example 500] | > 100 | > 100 | 0.37
11 | Nc1nc2cc(-c3cc[nH]n3)ccc2c2nn(CCC(=O)N3CCOCC3)cc12 [Example 501] | > 100 | > 100 | 0.73
12 | NC(=O)CCCn1cc2c(N)nc3cc(-c4cc[nH]n4)ccc3c2n1 [Example 502] | > 100 | > 100 | 1.68
13 | Nc1nc2cc(-c3cc[nH]n3)ccc2c2nn(CCC(=O)N3CC(F)(F)C3)cc12 [Example 503] | > 100 | > 100 | 2.58
14 | Nc1nc2cc(-c3cc[nH]n3)ccc2c2nn(CCC(=O)NC3CCC3)cc12 [Example 504] | > 100 | > 100 | 2.34
15 | CN1CCN(C(=O)CCn2cc3c(N)nc4cc(-c5cc[nH]n5)ccc4c3n2)CC1 [Example 505] | > 100 | > 100 | 29.6
16 | CN(C)C(=O)CCn1cc2c(N)nc3cc(-c4cc[nH]n4)ccc3c2n1 [Example 506] | > 100 | > 100 | 1.4
17 | Nc1nc2cc(-c3cc[nH]n3)ccc2c2nn(CCC(=O)NCc3ccccn3)cc12 [Example 507] | > 100 | > 100 | 17.5
18 | Nc1nc2cc(-c3cc[nH]n3)ccc2c2nn(CCC(=O)N3CCCC3)cc12 [Example 508] | > 100 | > 100 | 7.37
19 | CC(C)(C(=O)N1CCCC1)n1cc2c(N)nc3cc(-c4cc[nH]n4)ccc3c2n1 [Example 509] | > 100 | > 100 | 6.95
20 | CC(C)NC(=O)CCn1cc2c(N)nc3cc(-c4cc[nH]n4)ccc3c2n1 [Example 510] | > 100 | > 100 | 2.47
21 | Nc1nc2cc(-c3cc[nH]n3)ccc2c2nn(CCC(=O)NCCO)cc12 [Example 511] | > 100 | > 100 | 4.62

The next lines start with the values.

Row | EC50 (TLR7) [µM] | EC50 (TLR8) [µM] | EC50 (THP-1 cells) [µM] | Structure (SMILES)
22 | > 100 | > 100 | 0.51 | Nc1nc2cc(-c3cc[nH]n3)ccc2c2[nH]c(CN3CCCC3)cc12 [Example 476]
23 | > 100 | > 100 | 0.27 | Nc1nc2cc(-c3cc[nH]n3)ccc2c2[nH]c(CN3CC(F)(F)C3)cc12 [Example 477]
24 | > 100 | > 100 | 0.35 | Nc1nc2cc(-c3cc[nH]n3)ccc2c2[nH]c(CN[C@H]3CC[C@@H](CO)C3)cc12 [Example 478]
25 | > 100 | > 100 | 0.08 | COC1CN(Cc2cc3c(N)nc4cc(-c5cc[nH]n5)ccc4c3[nH]2)C1 [Example 479]
26 | > 100 | > 100 | 0.26 | Nc1nc2cc(-c3cc[nH]n3)ccc2c2[nH]c(CN3CC[C@@H](O)C3)cc12 [Example 480]
27 | > 100 | > 100 | 0.38 | CS(=O)(=O)NCCc1cc2c(N)nc3cc(-c4cc[nH]n4)ccc3c2[nH]1 [Example 481]
28 | > 100 | > 100 | 2.21 | CCS(=O)(=O)NCCc1cc2c(N)nc3cc(-c4cc[nH]n4)ccc3c2[nH]1 [Example 482]
29 | > 100 | > 100 | 1.1 | CC(C)S(=O)(=O)NCCc1cc2c(N)nc3cc(-c4cc[nH]n4)ccc3c2[nH]1 [Example 483]
30 | > 100 | > 100 | 1.41 | Nc1nc2cc(-c3cc[nH]n3)ccc2c2[nH]c(CCNS(=O)(=O)c3ccccc3)cc12 [Example 484]
31 | > 100 | > 100 | 0.08 | Nc1nc2cc(-c3cc[nH]n3)ccc2c2[nH]c(CCNC(=O)c3csc(Cl)n3)cc12 [Example 485]
32 | > 100 | > 100 | 0.13 | Nc1nc2cc(-c3cc[nH]n3)ccc2c2[nH]c(CN3CCOCC3)c(Cl)c12 [Example 486]
33 | > 100 | > 100 | 0.37 | Nc1nc2cc(-c3cc[nH]n3)ccc2c2[nH]c(CN[C@H]3CCOC3)c(Cl)c12 [Example 487]
34 | > 100 | > 100 | 1.15 | CC(Cn1cc2c(N)nc3cc(-c4ccn[nH]4)ccc3c2n1)C(=O)N(C)C (stereo not drawn) [Example 488, 3-(4-amino-7-(1H-pyrazol-5-yl)-2H-pyrazolo[4,3-c]quinolin-2-yl)-N,N,2-trimethylpropanamide.TFA]
35 | > 100 | > 100 | 0.77 | CO[C@H](CO)Cn1cc2c(N)nc3cc(-c4cc[nH]n4)ccc3c2n1 [Example 489]
36 | > 100 | > 100 | 0.84 | Nc1nc2cc(-c3cc[nH]n3)ccc2c2[nH]c(CN3C[C@H]4COC[C@H]4C3)cc12 [Example 490]
